The values below are quoted from earlier work in patent US9039761B2, “Ocular implant delivery assemblies with distal caps” (Allergan, Inc., priority 2006, dated 2015).

For this series the following is noted: efficacy in vivo; Goodman and Gilman's 8th Edition p. 1447.

As to `C[C@]12CCC(=O)C=C1CC[C@@H]1[C@@H]2[C@@H](O)C[C@@]2(C)[C@H]1CC[C@]2(O)C(=O)CO` [hydrocortisone], the “potency relative to dexamethasone (fold less potent)” value is “approximately twenty-five”.
